# Assay results taken from patent publication US20250325534A1, “MICROBIOCIDAL TETRAHYDROISOQUINOLINE DERIVATIVES” (SYNGENTA CROP PROTECTION AG, priority 2021, published 2025).
# System: Mycosphaerella graminicola
# Assay: Mycosphaerella graminicola (Septoria tritici) / liquid culture (Septoria blotch)
# Assay type: cell-based
# Conditions: Zymoseptoria tritici, 96 h, photometrically 4-5 days after application, read-out: control of Mycosphaerella graminicola
# Method: (§1) Example B19: Mycosphaerella graminicola (Septoria tritici)/Liquid Culture (Septoria Blotch) Conidia of the fungus from cryogenic storage are directly mixed into a nutrient broth (potato dextrose broth). After placing a DMSO solution of test compound into a microtiter plate (96-well format), the nutrient broth containing the fungal spores is added. The test plates are incubated at 24° C. and the inhibition of growth is determined photometrically 4-5 days after application.
row,SMILES,inhibition of growth at 20 ppm
1,"CCn1nc(C)c(C2CN(C(=O)c3cc(-c4ccc(F)cc4F)on3)Cc3ccccc32)c1C (stereo not shown) [Compound P-116, [5-(2,4-difluorophenyl)isoxazol-3-yl]-[4-(1-ethyl-3,5-dimethyl-pyrazol-4-yl)-3,4-dihydro-1H-isoquinolin-2-yl]methanone]",≥ 80%
2,"Cc1c(C2CN(C(=O)c3nnc(C4CC4)s3)Cc3ccccc32)cnn1C (stereo not shown) [Compound P-233, (5-cyclopropyl-1,3,4-thiadiazol-2-yl)-[4-(1,5-dimethylpyrazol-4-yl)-3,4-dihydro-1H-isoquinolin-2-yl]methanone]",≥ 80%
3,"CC1c2ccc(O)cc2C(C)(c2cnn(C)c2)CN1C(=O)c1cc(-c2ccccc2)on1 (stereo not shown) [Compound P-29, [6-hydroxy-1,4-dimethyl-4-(1-methylpyrazol-4-yl)-1,3-dihydroisoquinolin-2-yl]-(5-phenylisoxazol-3-yl)methanone]",≥ 80%
4,"Cn1cc(C2CN(C(=O)c3cc(-c4ccc(F)c(F)c4F)on3)Cc3ccccc32)cn1 (stereo not shown) [Compound P-144, [4-(1-methylpyrazol-4-yl)-3,4-dihydro-1H-isoquinolin-2-yl]-[5-(2,3,4-trifluorophenyl)isoxazol-3-yl]methanone]",≥ 80%
5,"Cn1cc(C2CN(C(=O)c3cc(C4CC4)on3)Cc3ccccc32)cn1 (stereo not shown) [Compound P-202, (5-cyclopropylisoxazol-3-yl)-[4-(1-methylpyrazol-4-yl)-3,4-dihydro-1H-isoquinolin-2-yl]methanone]",≥ 80%
6,"Cn1cc(C2CN(C(=O)c3cc(C4(C)CC4)on3)Cc3ccccc32)cn1 (stereo not shown) [Compound P-184, [5-(1-methylcyclopropyl)isoxazol-3-yl]-[4-(1-methylpyrazol-4-yl)-3,4-dihydro-1H-isoquinolin-2-yl]methanone]",≥ 80%
7,"CCCc1cc(C(=O)N2Cc3ccccc3C(c3cnn(C)c3)C2)no1 (stereo not shown) [Compound P-84, [4-(1-methylpyrazol-4-yl)-3,4-dihydro-1H-isoquinolin-2-yl]-(5-propylisoxazol-3-yl)methanone]",≥ 80%
8,"Cn1cc(C2CN(C(=O)c3noc(-c4cc(F)ccc4F)n3)Cc3ccccc32)cn1 (stereo not shown) [Compound P-90, [5-(2,5-difluorophenyl)-1,2,4-oxadiazol-3-yl]-[4-(1-methylpyrazol-4-yl)-3,4-dihydro-1H-isoquinolin-2-yl]methanone]",≥ 80%
9,"Cn1cc(C2CN(C(=O)c3coc(-c4ccc(F)cc4)n3)Cc3ccccc32)cn1 (stereo not shown) [Compound P-69, [2-(4-fluorophenyl)oxazol-4-yl]-[4-(1-methylpyrazol-4-yl)-3,4-dihydro-1H-isoquinolin-2-yl]methanone]",≥ 80%
10,"CC(C)C1(c2cnn(C)c2)CN(C(=O)c2cc(-c3ccc(F)cc3F)on2)Cc2ccccc21 (stereo not shown) [Compound P-219, [5-(2,4-difluorophenyl)isoxazol-3-yl]-[4-isopropyl-4-(1-methylpyrazol-4-yl)-1,3-dihydroisoquinolin-2-yl]methanone]",≥ 80%
11,"C#CCn1cc(C2CN(C(=O)c3cc(-c4ccccc4)on3)Cc3ccccc32)cn1 (stereo not shown) [Compound P-128, (5-phenylisoxazol-3-yl)-[4-(1-prop-2-ynylpyrazol-4-yl)-3,4-dihydro-1H-isoquinolin-2-yl]methanone]",≥ 80%
12,"C[C@@H]1c2ccccc2[C@](C)(c2cnn(C)c2)CN1C(=O)c1cc(-c2ccc(F)cc2F)on1 (single isomer, unassigned) [Compound P-7]",≥ 80%
13,"COc1ccc2c(c1)[C@@H](c1cnn(C)c1)CN(C(=O)c1cc(-c3ccc(F)cc3F)on1)[C@@H]2C (racemic) [Compound P-217, [5-(2,4-difluorophenyl)isoxazol-3-yl]-[rac-(1R,4S)-6-methoxy-1-methyl-4-(1-methylpyrazol-4-yl)-3,4-dihydro-1H-isoquinolin-2-yl]methanone]",≥ 80%
14,"Cn1cc(C2CN(C(=O)c3coc(-c4ccccc4)c3)Cc3ccccc32)cn1 (stereo not shown) [Compound P-147, [4-(1-methylpyrazol-4-yl)-3,4-dihydro-1H-isoquinolin-2-yl]-(5-phenyl-3-furyl)methanone]",≥ 80%
15,"CCc1nnc(C(=O)N2Cc3ccccc3C(c3cnn(C)c3C)C2)s1 (stereo not shown) [Compound P-244, [4-(1,5-dimethylpyrazol-4-yl)-3,4-dihydro-1H-isoquinolin-2-yl]-(5-ethyl-1,3,4-thiadiazol-2-yl)methanone]",≥ 80%
16,"Cn1cc(C2CN(C(=O)c3cc(-c4ccccc4)ns3)Cc3ccccc32)cn1 (stereo not shown) [Compound P-161, [4-(1-methylpyrazol-4-yl)-3,4-dihydro-1H-isoquinolin-2-yl]-(3-phenylisothiazol-5-yl)methanone]",≥ 80%
17,"Cn1cc(C2CN(C(=O)c3cc(-c4ccccc4)on3)Cc3cc(C(F)(F)F)ccc32)cn1 (stereo not shown) [Compound P-103, [4-(1-methylpyrazol-4-yl)-7-(trifluoromethyl)-3,4-dihydro-1H-isoquinolin-2-yl]-(5-phenylisoxazol-3-yl)methanone]",≥ 80%
18,"CCC(C)c1cc(C(=O)N2Cc3ccccc3C(c3cnn(C)c3)C2)on1 (stereo not shown) [Compound P-88, [4-(1-methylpyrazol-4-yl)-3,4-dihydro-1H-isoquinolin-2-yl]-(3-sec-butylisoxazol-5-yl)methanone]",≥ 80%
19,"CC1c2ccc(OC(F)F)cc2C(C)(c2cnn(C)c2)CN1C(=O)c1cc(-c2ccccc2)on1 (stereo not shown) [Compound P-28, [6-(difluoromethoxy)-1,4-dimethyl-4-(1-methylpyrazol-4-yl)-1,3-dihydroisoquinolin-2-yl]-(5-phenylisoxazol-3-yl)methanone]",≥ 80%
20,"Cn1cc(C2CN(C(=O)c3cc(-c4ccc(F)cc4F)on3)Cc3ccc(C(F)(F)F)cc32)cn1 (stereo not shown) [Compound P-112, [5-(2,4-difluorophenyl)isoxazol-3-yl]-[4-(1-methylpyrazol-4-yl)-6-(trifluoromethyl)-3,4-dihydro-1H-isoquinolin-2-yl]methanone]",≥ 80%
21,"Cc1c(C2CN(C(=O)c3cc(C4CC4)on3)Cc3ccccc32)cnn1C (stereo not shown) [Compound P-237, (5-cyclopropylisoxazol-3-yl)-[4-(1,5-dimethylpyrazol-4-yl)-3,4-dihydro-1H-isoquinolin-2-yl]methanone]",≥ 80%
22,"Cn1cc(C2CN(C(=O)c3cc(-c4ccc(S(C)(=O)=O)cc4F)on3)Cc3ccccc32)cn1 (stereo not shown) [Compound P-20, [5-(2-fluoro-4-methylsulfonyl-phenyl)isoxazol-3-yl]-[4-(1-methylpyrazol-4-yl)-3,4-dihydro-1H-isoquinolin-2-yl]methanone]",≥ 80%
23,"Cn1cc(C2CN(C(=O)c3cc(-c4c(F)cc(F)cc4F)no3)Cc3ccccc32)cn1 (stereo not shown) [Compound P-129, [4-(1-methylpyrazol-4-yl)-3,4-dihydro-1H-isoquinolin-2-yl]-[3-(2,4,6-trifluorophenyl)isoxazol-5-yl]methanone]",≥ 80%
24,"Cn1cc(C2CN(C(=O)c3cc(-c4ccc(F)cc4F)on3)C(c3ccccc3)c3ccccc32)cn1 (stereo not shown) [Compound P-43, [5-(2,4-difluorophenyl)isoxazol-3-yl]-[4-(1-methylpyrazol-4-yl)-1-phenyl-3,4-dihydro-1H-isoquinolin-2-yl]methanone]",≥ 80%
25,"Cn1cc(C2CN(C(=O)c3cc(-c4cccc(F)c4F)on3)Cc3ccccc32)cn1 (stereo not shown) [Compound P-150, [5-(2,3-difluorophenyl)isoxazol-3-yl]-[4-(1-methylpyrazol-4-yl)-3,4-dihydro-1H-isoquinolin-2-yl]methanone]",≥ 80%
26,"COC(=O)C1c2ccccc2C(c2cnn(C)c2)CN1C(=O)c1cc(-c2ccccc2)on1 (stereo not shown) [Compound P-41, methyl 4-(1-methylpyrazol-4-yl)-2-(5-phenylisoxazole-3-carbonyl)-3,4-dihydro-1H-isoquinoline-1-carboxylate]",≥ 80%
27,"Cn1cc(C2CN(C(=O)c3cc(C(C)(C)C)no3)Cc3ccccc32)cn1 (stereo not shown) [Compound P-83, (3-tert-butylisoxazol-5-yl)-[4-(1-methylpyrazol-4-yl)-3,4-dihydro-1H-isoquinolin-2-yl]methanone]",≥ 80%
28,"CCCC1c2ccccc2C(c2cnn(C)c2)CN1C(=O)c1cc(-c2ccc(F)cc2F)on1 (stereo not shown) [Compound P-59, [5-(2,4-difluorophenyl)isoxazol-3-yl]-[4-(1-methylpyrazol-4-yl)-1-propyl-3,4-dihydro-1H-isoquinolin-2-yl]methanone]",≥ 80%

# System: Monographella nivalis
# Assay: Monographella nivalis (Microdochium nivale) / liquid culture (foot rot cereals)
# Assay type: cell-based
# Conditions: 96 h, photometrically 4-5 days after application, read-out: control of Monographella nivalis
# Method: as §1, with “B10: Monographella nivalis (Microdochium nivale)/Liquid” for “B19: Mycosphaerella graminicola (Septoria tritici)/Liquid”, “(Foot Rot Cereals)” for “(Septoria Blotch)”
row,SMILES,inhibition of growth at 20 ppm
1,"COc1ccc(-c2cc(C(=O)N3Cc4ccccc4C(c4cnn(C)c4)C3)no2)c(F)c1 (stereo not shown) [Compound P-74, [5-(2-fluoro-4-methoxy-phenyl)isoxazol-3-yl]-[4-(1-methylpyrazol-4-yl)-3,4-dihydro-1H-isoquinolin-2-yl]methanone]",≥ 80%
2,"CC(C)C1(c2cnn(C)c2)CN(C(=O)c2cc(-c3ccc(F)cc3F)on2)Cc2ccccc21 (stereo not shown) [Compound P-246, [5-(2,4-difluorophenyl)isoxazol-3-yl]-[4-isopropyl-4-(1-methylpyrazol-4-yl)-1,3-dihydroisoquinolin-2-yl]methanone]",≥ 80%
3,"CCC1(c2cnn(C)c2)CN(C(=O)c2cc(-c3ccc(F)cc3F)on2)Cc2ccccc21 (stereo not shown) [Compound P-248, [5-(2,4-difluorophenyl)isoxazol-3-yl]-[4-ethyl-4-(1-methylpyrazol-4-yl)-1,3-dihydroisoquinolin-2-yl]methanone]",≥ 80%
